Experimental findings from the OPERA property sets (Mansouri et al. 2018) are described below.

Peptide text beside a SMILES is read from it.

In turn, `NS(=O)(=O)c1cccc(Cl)c1` returned a logP of 1.29. As to `C=CCC`, the logP amounted to 2.4. On to `C=CCOc1ccc(CC(=O)O)cc1Cl`, for which the logP amounted to 2.48. `CN(C(N)=S)c1ccccc1` showed a logP of 0.85. The compound `CS(=O)(=O)c1c(F)c(F)c(F)c(F)c1F` came in with a logP of 1.11. `COc1ccc2c(c1)C13CCN4CC5=CCOC6CC(=O)N2C1C6C5CC43` (stereo unspecified) registered a logP of 1.85. `CC(=O)NC(C)C(=O)NC(Cc1ccc(O)cc1)C(=O)NC(Cc1ccccc1)C(N)=O` (stereo not drawn) (Ac-Ala-Tyr-Phe-NH2; configuration not given here) gave a lipophilicity (logP) of 0.26. Compound `CCC1(CCC(C)C)C(=O)NC(=O)NC1=O` showed a logP of 2.07. Turning to `COC(N)=O`, the logP is -0.66.

In the case of `O=C(Nc1ccccc1)Nc1ccccc1`, the logP came to 3. Compound `Cc1cc2c(cc1S(N)(=O)=O)S(=O)(=O)NCN2` had a logP of -0.22. The figure for `Cc1ncc([N+](=O)[O-])n1CCNC(=O)OC(C)C` is 0.88. `CCCCOC(=O)Oc1cccc(C2(C(=O)CC)CCN(C)CC2)c1` displayed a logP of 2.42. In turn, `COC(=O)c1cccc(C(=O)O)c1` came in with a log partition coefficient (logP) of 1.83. On to `Cc1cn(C2OC(CO)C(O)C2O)c(=O)nc1N` (stereo unspecified), for which the logP was -2.01. In turn, `CN(Cc1ccc(C#N)cc1)N=O` displayed a logP of 0.95. On to `c1ccc(-c2ccc(NCCN3CCOCC3)nn2)cc1`, for which the logP was 1.85.

Compound `O=[N+]([O-])c1ccc(O/N=C/c2cc(Br)c(O)c(Br)c2)c([N+](=O)[O-])c1` came in with a logP of 3.3. Compound `O=C(OC1CCCCC1)n1cc(F)c(=O)[nH]c1=O` returned a logP of 1.42. With `O=C(CN1CCCCC1)Nc1ccccc1F`, the logP was 2.16.

`Clc1cccc2cccnc12` yielded a log partition coefficient (logP) of 2.44. Turning to `Oc1nc2ccccc2[nH]1`, the logP turned out to be 1.12. The figure for `CN(C)CCCc1ccccc1` is 2.73.

`CCC(C)N(C(=O)SCc1ccccc1)C(C)CC` (stereo unspecified) showed a logP of 4.4. The figure for `O=C(O)CCc1ccc(O)cc1` is 1.16; for `CCCC(=O)OCn1cnc(CSCCNC(=NC#N)NC)c1C` it is 1.6; for `O=c1oc2ccccc2c(O)c1Cc1c(O)c2ccccc2oc1=O` it is 2.07. In turn, `NNC=O` yielded a lipophilicity (logP) of -2.05. In the case of `CCc1ccccc1OCC(=O)O`, the log partition coefficient (logP) turned out to be 2.53. `CCCCCC(=O)Nc1ccccc1` registered a logP of 3.28. As for `NCCO`, the figure is -1.31; as for `CC(=O)Nc1ccc2cccnc2c1`, 1.55.

Consider `CCOP(=S)(OCC)N1C(=O)c2ccccc2C1=O`, for which the logP worked out at 3.48. Compound `O=C(c1ccccc1)n1c(=O)[nH]cc(F)c1=O` gave a logP of 0.8.

Take `Cc1ccc(C(N)=O)cc1`: the logP is 1.18. With `CSc1ccc2ccccc2n1`, the logP worked out at 3.04. `CCCCCOC(=O)c1ccc(N)cc1` yielded a logP of 3.48. Compound `CCCN(CCC)S(=O)(=O)c1ccc(C(=O)O)cc1` yielded a logP of 3.21. Take `NC(=O)Nc1ccccc1F`: the logP stood at 0.88. Regarding `O=C(O)CNC(=O)c1ccccc1O`, the logP turned out to be 0.95. For `O=C(O)c1cc(Br)ccc1O`, the logP was 3.23. `O=C1CCCCO1` came in with a logP of -0.35. Consider `NC(=O)Nc1ccccc1`, for which the logP came out at 0.83. Take `O=NN1CCSCC1`: the logP was 0.4. The figure for `NS(=O)(=O)c1cc2c(cc1Cl)NC(Cc1ccccc1)NS2(=O)=O` (stereo unspecified) is 0.93; for `COc1cccc(COC(C)=O)c1` it is 2.02; for `COc1ccc(C(=O)OCCN(C)C)cc1` it is 2.21. With `NS(=O)(=O)c1cccc(S(N)(=O)=O)c1`, the logP was -0.55.

In turn, `Clc1cc(Cl)c(Cl)c(-c2c(Cl)c(Cl)c(Cl)c(Cl)c2Cl)c1Cl` registered a logP of 8.16.

`SC1=NCCCN1`: the lipophilicity (logP) was -0.68. The figure for `CCOC(=O)c1cccs1` is 2.33; for `C=CCc1ccccc1OCC(O)CNC(C)C` (stereo unspecified) it is 3.1. The compound `C[C@]12CC[C@H](O)CC1=CC[C@@H]1[C@@H]2CC[C@]2(C)C(=O)CC[C@@H]12` came in with a logP of 3.23. This logP and that of the compound before are within 0.2 log units of each other. As for `O=C(O)Cc1cccc(F)c1`, the figure is 1.65; as for `Nc1nc(N)nc(-c2cccc(SC(F)(F)F)c2)n1`, 3.2; as for `Cc1cc(N)ncn1`, 0.19. Consider `CCC(C(c1ccc(OC)cc1)c1ccc(OC)cc1)[N+](=O)[O-]` (stereo unspecified), for which the logP worked out at 4.45. `CCCCCCOC(N)=O` yielded a logP of 1.85.

The compound `CC(C)(C)c1cc(O)ccc1[N+](=O)[O-]` registered a logP of 3.65.

Compound `NCCCCNC(=O)c1ccccc1` came in with a logP of 0.58.

Take `CC(C)N(N=Nc1ccc(C(N)=O)cc1)C(C)C`: the logP came to 3. `O=Cc1ccco1` had a logP of 0.41. In turn, `CCC1CCCCN1C(=O)COC(=O)c1ccccc1` (stereo unspecified) displayed a logP of 2.62.

Compound `CN(CC(O)COc1ccccc1)CC(O)COc1ccccc1` (stereo unspecified) gave a log partition coefficient (logP) of 2.92. Regarding `COc1ccc(C=CC(=O)O)cc1`, the logP came out at 2.68.

In turn, `COc1cc(S(=O)(=O)CCN(C)Cc2ccccc2)cc(OC)c1OC` had a log partition coefficient (logP) of 2.18.

`CCCC(NC(C)=O)C(=O)OC` (stereo unspecified) displayed a logP of 0.33. `CN=C(O)Oc1cccc(C)c1` displayed a logP of 1.7.

Regarding `CN1C(=O)CN=C(c2ccccc2F)c2cc(F)ccc21`, the logP was determined as 2.41. The figure for `O=[N+]([O-])c1ncn(CC(O)CF)n1` (stereo unspecified) is -0.59; for `Oc1ccc(Cl)c(Cl)c1` it is 3.33. `NC(C(=O)OCn1ncc2c(=O)[nH]cnc21)c1ccccc1` (stereo unspecified) registered a logP of -0.15. In turn, `CC(=O)Nc1ccc(O)c(C)c1C` had a logP of 0.57. For the compound `COC(=O)c1ccccc1N=NN(C)C`, the logP amounted to 2.51. For the compound `Cc1cccc2sc3nncn3c12`, the logP was 1.7. For `O=c1[nH]c(=O)n([C@H]2C[C@H](O)[C@@H](CO)O2)cc1C(F)(F)F`, the logP is -0.46.

`CCCCCCOc1ccc(NC(=O)OCCN2CCCCC2)cc1` yielded a logP of 5.41. In the case of `CCCCl`, the logP amounted to 2.04. In turn, `O=[N+]([O-])c1cccc(Cl)c1` gave a logP of 2.46. As for `CC1=C(O)OC2CC(C)C3C=CC(=O)C3(C)C(O)C12` (stereo unspecified), the figure is 1.13; as for `c1ccc2c(c1)CCCN2`, 2.29; as for `CC(C)c1ccc(C(N)=O)cc1`, 2.14. The figure for `Brc1cccs1` is 2.75; for `O=[N+]([O-])c1ccc2ncccc2c1` it is 1.84; for `CC(=O)c1ccc(C(O)C(CO)NC(=O)C(Cl)Cl)cc1` (stereo unspecified) it is 0.57. The figure for `CC1CCCC(C)N1N=O` (stereo unspecified) is 1.36. Compound `N#Cc1ccc[nH]1` yielded a logP of 1.13. `COc1cccc(N(C)C(=S)Oc2cccc(C(C)(C)C)c2)n1` returned a logP of 5.18. Consider `C[C@@H]1C[C@H]2[C@@H]3CCC4=CC(=O)C=C[C@]4(C)[C@@]3(F)[C@@H](O)C[C@]2(C)[C@H]1C(=O)CO`, for which the logP was 2.35. Turning to `Cc1cccc(Cl)c1`, the logP was 3.28. As for `Nc1ccc(S(=O)(=O)Nc2ccnn2-c2ccccc2)cc1`, the figure is 1.52. In turn, `CCCOP(OCCC)OCCC` displayed a logP of 2.26.

`O=C(O)c1ccc(O)c([N+](=O)[O-])c1` gave a log partition coefficient (logP) of 1.85.

`c1ccc(-n2cccn2)cc1`: the logP was determined as 2.2. The compound `O=C(O)c1cccc(I)c1` returned a log partition coefficient (logP) of 3.13. The figure for `O=[N+]([O-])c1cccc2c1ccc[n+]2[O-]` is 0.49; for `O=C(CN1CCCCC1)Nc1ccccc1[N+](=O)[O-]` it is 2.75. Regarding `Nc1ccc2ccccc2c1`, the logP was found to be 2.28.

For `CN(C)C(N(C)C)=S(I)c1ccc(C#N)cc1` (stereo unspecified), the logP is -1.13. As for `BrC=CBr`, the lipophilicity (logP) turned out to be 1.76. Compound `CC(=O)NC(C(=O)NC(CCC(N)=O)C(N)=O)C(C)C` (stereo not drawn) (Ac-Val-Gln-NH2; configuration not given here) had a logP of -1.82. In the case of `CS(=O)CC(=O)C=NO` (stereo unspecified), the logP is -0.72. As for `CCCCCCCCCCCCCC`, the lipophilicity (logP) was determined as 7.2. `c1ccc(-c2ncc[nH]2)cc1` returned a logP of 1.88. As for `Cc1cccc2nccnc12`, the figure is 2.04. In turn, `Nc1ncnc2[nH]cnc12` yielded a logP of -0.09. As for `C=CCC1(CC(=C)Br)C(=O)NC(=O)NC1=O`, the figure is 1.37. As for `O=C1CCCO1`, the logP is -0.64.

Turning to `CCc1ccccn1`, the logP came out at 1.69.

As to `O=NN1CC=CC1`, the logP was determined as 0.26. As for `COC(=O)/C=C\C(=O)OC`, the figure is 0.22; as for `C=CCC1(CC)C(=O)NC(=O)N(C)C1=O` (stereo unspecified), 1.35. For the compound `O=C(O)c1cccc2ccccc12`, the logP is 3.1. The figure for `Cc1cccc(C)c1O` is 2.36; for `CCCCOc1ccc(CC(=O)NO)cc1` it is 2.08. With `COc1c(O)c(OC)c(OC)c(O)c1OC`, the logP came to 0.39. `Oc1c(Cl)cccc1Cl` displayed a logP of 2.75. The compound `OCC1OC(Oc2ccc(Cl)cc2)C(O)C(O)C1O` (stereo unspecified) had a logP of 0.26. In turn, `c1ccc(-c2cnc(-c3ccccc3)o2)cc1` had a logP of 4.67. For `CCOc1ccccc1S(I)=C(N(C)C)N(C)C` (stereo unspecified), the logP was -0.06. On to `CCNC(=O)c1ccoc1`, for which the logP stood at 0.72. The compound `CC(=O)Nc1ccc(O)c(C(C)C)c1` returned a lipophilicity (logP) of 1.71. `CCCCCC(=O)OCC(=O)C1(O)CCC2C3CCC4=CC(=O)CCC4(C)C3C(O)CC21C` (stereo unspecified) registered a logP of 4.48.

`C1OC1CN1CCN(CC2CO2)CC1` (stereo unspecified): the log partition coefficient (logP) is -0.84.

Consider `CNc1nc(-c2ccccc2)c2ccccc2n1`, for which the logP was found to be 3.58. Take `CCCCCCCCCC(=O)N1CCCC1=O`: the logP came out at 4.33. For the compound `O=C1C(Cl)=C(Nc2ccccc2)C(=O)c2ccccc21`, the log partition coefficient (logP) worked out at 4.22. With `C=C(C)C(=O)OC`, the logP was determined as 1.38. As for `CC1(C)CCCC(C)(C)N1`, the logP was 2.15. For the compound `CN(C)N=O`, the logP is -0.57. Compound `OCCCF` yielded a logP of -0.28. Consider `CC(C)Cc1cc(C(=O)NN)ccn1`, for which the logP is 1.02. Regarding `CC1CCCC1`, the logP is 3.37. The figure for `Clc1ccc2ccccc2c1Cl` is 4.42; for `Nc1ccc(S(=O)(=O)Nc2nccs2)cc1` it is 0.05. As for `CCCc1cc(OC)c(CC(C)N)cc1OC` (stereo unspecified), the figure is 3.37.

For orientation: logP means the decadic logarithm of the partition coefficient of the neutral form, usually between octanol and water. A lower logP goes with a more hydrophilic compound.
